Experimental data from patent US4181710A, “Rumen-stable pellets” (Eastman Kodak Company, priority 1978, dated 1980).
≈ marks a conversion by molar mass, not a printed value.

Experiment: Solubility of amino acids in water
Format: physicochemical
Conditions: at 25° C.

Row | solubility [mg/mL] | Compound
1 | 167 (≈ 1870 mM) | CC(N)C(=O)O (racemic) [DL - Alanine]
2 | 40 (≈ 268 mM) | CSCCC(N)C(=O)O (racemic) [DL - Methionine]
